# Assay results: PubChem BioAssay AID1259407 (Chemical Carcinogenesis Research Information System (CCRIS), 2018)
# Active and inactive are the calls of the source. The rule behind the calls is not given here.
# System: CCRIS mutagenicity, Ames/micronucleus/aberration tests
# Assay: CCRIS mutagenicity studies
# [1] = Test System: AMES SALMONELLA TYPHIMURIUM, Strain/Indicator: TA98, Metabolic Activation: NONE, Method: PREINCUBATION
# [2] = Test System: AMES SALMONELLA TYPHIMURIUM, Strain/Indicator: TA98, Metabolic Activation: NONE, Method: STANDARD PLATE
# [3] = Test System: AMES SALMONELLA TYPHIMURIUM, Strain/Indicator: TA100, Metabolic Activation: NONE, Method: PREINCUBATION
# [4] = Test System: AMES SALMONELLA TYPHIMURIUM, Strain/Indicator: TA100, Metabolic Activation: NONE, Method: STANDARD PLATE
# [5] = Test System: AMES SALMONELLA TYPHIMURIUM, Strain/Indicator: TA1535, Metabolic Activation: NONE, Method: PREINCUBATION
smiles,measurement,setting,value
Cc1ncc[nH]1,mutagenic call,"End Point: IN VIVO MICRONUCLEUS, Test System: BONE MARROW POLYCHROMATIC ERYTHROCYTES, Species: MOUSE, Strain/Sex: B6C3F1/MALE, Route: IP",inactive; negative
same,mutagenic call,"End Point: IN VIVO MICRONUCLEUS, Test System: BONE MARROW POLYCHROMATIC ERYTHROCYTES, Species: RAT, Strain/Sex: F344/N/MALE, Route: IP",inactive; negative
same,mutagenic call,"End Point: IN VIVO MICRONUCLEUS, Test System: PERIPHERAL BLOOD NORMOCHROMATIC ERYTHROCYTES, Species: MOUSE, Strain/Sex: B6C3F1/MALE, FEMALE, Route: ORAL (DIET)",active; positive
same,mutagenic call,"Test System: AMES SALMONELLA TYPHIMURIUM, Strain/Indicator: TA97, Metabolic Activation: HAMSTER, LIVER, S-9, AROCLOR 1254, Method: PREINCUBATION",inactive; negative
same,mutagenic call,"Test System: AMES SALMONELLA TYPHIMURIUM, Strain/Indicator: TA97, Metabolic Activation: NONE, Method: PREINCUBATION",inactive; negative
same,mutagenic call,"Test System: AMES SALMONELLA TYPHIMURIUM, Strain/Indicator: TA97, Metabolic Activation: RAT, LIVER, S-9, AROCLOR 1254, Method: PREINCUBATION",inactive; negative
same,mutagenic call,"Test System: AMES SALMONELLA TYPHIMURIUM, Strain/Indicator: TA98, Metabolic Activation: HAMSTER, LIVER, S-9, AROCLOR 1254 (10%), Method: STANDARD PLATE",inactive; negative
same,mutagenic call,"Test System: AMES SALMONELLA TYPHIMURIUM, Strain/Indicator: TA98, Metabolic Activation: HAMSTER, LIVER, S-9, AROCLOR 1254, Method: PREINCUBATION",inactive; negative
same,mutagenic call,[1],inactive; negative
same,mutagenic call,[2],inactive; negative
same,mutagenic call,"Test System: AMES SALMONELLA TYPHIMURIUM, Strain/Indicator: TA98, Metabolic Activation: RAT, LIVER, S-9, AROCLOR 1254 (10%), Method: STANDARD PLATE",inactive; negative
same,mutagenic call,"Test System: AMES SALMONELLA TYPHIMURIUM, Strain/Indicator: TA98, Metabolic Activation: RAT, LIVER, S-9, AROCLOR 1254, Method: PREINCUBATION",inactive; negative
same,mutagenic call,"Test System: AMES SALMONELLA TYPHIMURIUM, Strain/Indicator: TA100, Metabolic Activation: HAMSTER, LIVER, S-9, AROCLOR 1254 (10%), Method: STANDARD PLATE",inactive; negative
same,mutagenic call,"Test System: AMES SALMONELLA TYPHIMURIUM, Strain/Indicator: TA100, Metabolic Activation: HAMSTER, LIVER, S-9, AROCLOR 1254, Method: PREINCUBATION",inactive; negative
same,mutagenic call,[3],inactive; negative
same,mutagenic call,[4],inactive; negative
same,mutagenic call,"Test System: AMES SALMONELLA TYPHIMURIUM, Strain/Indicator: TA100, Metabolic Activation: RAT, LIVER, S-9, AROCLOR 1254 (10%), Method: STANDARD PLATE",inactive; negative
same,mutagenic call,"Test System: AMES SALMONELLA TYPHIMURIUM, Strain/Indicator: TA100, Metabolic Activation: RAT, LIVER, S-9, AROCLOR 1254, Method: PREINCUBATION",inactive; negative
same,mutagenic call,"Test System: AMES SALMONELLA TYPHIMURIUM, Strain/Indicator: TA1535, Metabolic Activation: HAMSTER, LIVER, S-9, AROCLOR 1254 (10%), Method: STANDARD PLATE",inactive; negative
same,mutagenic call,"Test System: AMES SALMONELLA TYPHIMURIUM, Strain/Indicator: TA1535, Metabolic Activation: HAMSTER, LIVER, S-9, AROCLOR 1254, Method: PREINCUBATION",inactive; negative
same,mutagenic call,[5],inactive; negative
same,mutagenic call,"Test System: AMES SALMONELLA TYPHIMURIUM, Strain/Indicator: TA1535, Metabolic Activation: NONE, Method: STANDARD PLATE",inactive; negative
same,mutagenic call,"Test System: AMES SALMONELLA TYPHIMURIUM, Strain/Indicator: TA1535, Metabolic Activation: RAT, LIVER, S-9, AROCLOR 1254 (10%), Method: STANDARD PLATE",inactive; negative
same,mutagenic call,"Test System: AMES SALMONELLA TYPHIMURIUM, Strain/Indicator: TA1535, Metabolic Activation: RAT, LIVER, S-9, AROCLOR 1254, Method: PREINCUBATION",inactive; negative
same,mutagenic call,"Test System: AMES SALMONELLA TYPHIMURIUM, Strain/Indicator: TA1537, Metabolic Activation: HAMSTER, LIVER, S-9, AROCLOR 1254 (10%), Method: STANDARD PLATE",inactive; negative
same,mutagenic call,"Test System: AMES SALMONELLA TYPHIMURIUM, Strain/Indicator: TA1537, Metabolic Activation: NONE, Method: STANDARD PLATE",inactive; negative
same,mutagenic call,"Test System: AMES SALMONELLA TYPHIMURIUM, Strain/Indicator: TA1537, Metabolic Activation: RAT, LIVER, S-9, AROCLOR 1254 (10%), Method: STANDARD PLATE",inactive; negative
same,mutagenic call,"Test System: AMES SALMONELLA TYPHIMURIUM, Strain/Indicator: TA1538, Metabolic Activation: HAMSTER, LIVER, S-9, AROCLOR 1254 (10%), Method: STANDARD PLATE",inactive; negative
same,mutagenic call,"Test System: AMES SALMONELLA TYPHIMURIUM, Strain/Indicator: TA1538, Metabolic Activation: NONE, Method: STANDARD PLATE",inactive; negative
same,mutagenic call,"Test System: AMES SALMONELLA TYPHIMURIUM, Strain/Indicator: TA1538, Metabolic Activation: RAT, LIVER, S-9, AROCLOR 1254 (10%), Method: STANDARD PLATE",inactive; negative
same,mutagenic call,"Test System: MOUSE LYMPHOMA, Strain/Indicator: L5178Y (TK+/TK-), Metabolic Activation: NONE, Method: SUSPENSION/PLATE",inactive; negative. reevaluation of results: inconclusive
same,mutagenic call,"Test System: MOUSE LYMPHOMA, Strain/Indicator: L5178Y (TK+/TK-), Metabolic Activation: RAT, LIVER, S-9, AROCLOR 1254, Method: SUSPENSION/PLATE",inactive; negative. reevaluation of results: inconclusive
OC1C=CC=CC1O (stereo not drawn),mutagenic call,[2],inactive; negative
same,mutagenic call,"Test System: AMES SALMONELLA TYPHIMURIUM, Strain/Indicator: TA98, Metabolic Activation: RAT, LIVER, S-9, PHENOBARBITAL, Method: STANDARD PLATE",inactive; negative
same,mutagenic call,[3],inactive; negative
same,mutagenic call,[4],inactive; negative
same,mutagenic call,"Test System: AMES SALMONELLA TYPHIMURIUM, Strain/Indicator: TA100, Metabolic Activation: RAT, LIVER, S-9, PHENOBARBITAL, Method: PREINCUBATION",active; positive
same,mutagenic call,"Test System: AMES SALMONELLA TYPHIMURIUM, Strain/Indicator: TA100, Metabolic Activation: RAT, LIVER, S-9, PHENOBARBITAL, Method: STANDARD PLATE",active; positive
same,mutagenic call,"Test System: AMES SALMONELLA TYPHIMURIUM, Strain/Indicator: TM677/8-AZAGUANINE, Metabolic Activation: NONE, Method: PREINCUBATION",inactive; negative
same,mutagenic call,"Test System: AMES SALMONELLA TYPHIMURIUM, Strain/Indicator: TM677/8-AZAGUANINE, Metabolic Activation: NONE, Method: STANDARD PLATE",active; positive
same,mutagenic call,"Test System: AMES SALMONELLA TYPHIMURIUM, Strain/Indicator: TM677/8-AZAGUANINE, Metabolic Activation: RAT, LIVER, S-9, PHENOBARBITAL, Method: PREINCUBATION",active; positive
C1CN(SSN2CCOCC2)CCO1,mutagenic call,[1],inactive; negative
same,mutagenic call,"Test System: AMES SALMONELLA TYPHIMURIUM, Strain/Indicator: TA98, Metabolic Activation: RAT LIVER S-9, PHENOBARBITAL AND BETA-NAPHTHOFLAVONE, Method: PREINCUBATION",inactive; negative
same,mutagenic call,[3],inactive; negative
same,mutagenic call,"Test System: AMES SALMONELLA TYPHIMURIUM, Strain/Indicator: TA100, Metabolic Activation: RAT LIVER S-9, PHENOBARBITAL AND BETA-NAPHTHOFLAVONE, Method: PREINCUBATION",inactive; negative
same,mutagenic call,[5],inactive; negative
same,mutagenic call,"Test System: AMES SALMONELLA TYPHIMURIUM, Strain/Indicator: TA1535, Metabolic Activation: RAT LIVER S-9, PHENOBARBITAL AND BETA-NAPHTHOFLAVONE, Method: PREINCUBATION",inactive; negative
same,mutagenic call,"Test System: AMES SALMONELLA TYPHIMURIUM, Strain/Indicator: TA1537, Metabolic Activation: NONE, Method: PREINCUBATION",inactive; negative
same,mutagenic call,"Test System: AMES SALMONELLA TYPHIMURIUM, Strain/Indicator: TA1537, Metabolic Activation: RAT LIVER S-9, PHENOBARBITAL AND BETA-NAPHTHOFLAVONE, Method: PREINCUBATION",inactive; negative
same,mutagenic call,"Test System: AMES SALMONELLA TYPHIMURIUM, Strain/Indicator: TA1538, Metabolic Activation: NONE, Method: PREINCUBATION",inactive; negative
same,mutagenic call,"Test System: AMES SALMONELLA TYPHIMURIUM, Strain/Indicator: TA1538, Metabolic Activation: RAT LIVER S-9, PHENOBARBITAL AND BETA-NAPHTHOFLAVONE, Method: PREINCUBATION",inactive; negative
same,mutagenic call,"Test System: E.COLI, Strain/Indicator: WP2UVRA, Metabolic Activation: NONE, Method: PREINCUBATION",inactive; negative
same,mutagenic call,"Test System: E.COLI, Strain/Indicator: WP2UVRA, Metabolic Activation: RAT LIVER S-9, PHENOBARBITAL AND BETA-NAPHTHOFLAVONE, Method: PREINCUBATION",inactive; negative
